# According to US9314498B2, “Bacteriocin derived from Lactobacillus rhamnosus” (priority 2011, dated 2016):
# Where no end group is shown, it is not given here.
# Columns and labels:
# [1] = system: Candida albicans GDH18 strain; test: Antimicrobial activity (CFU count, percentage of living cells) against Candida albicans GDH18; type: cell-based; conditions: 37° C., 90 minutes, 1 mM phosphate buffer
# Excerpt: As the Candida, cariogenic bacteria and periodontal disease bacteria, the Candida albicans GDH18 strain, Streptococcus sobrinus B-13 strain, Streptococcus mutans NCTC10449 strain, Streptococcus mutans Ingbritt strain, Porphyromonas gingivalis Hudoi001 strain and Aggregatibacter actinomycetemcomitans Hudoe001 strain were used. The test strains were provided from Faculty of Dentistry, Hiroshima University, Japan, and Hiroshima University Dental Hospital.
# (§1) The Candida albicans GDH18 strain was precultured using SD medium (Difco) at 37° C. for 24 hours under aerobic conditions. The Streptococcus sobrinus B-13 strain, Streptococcus mutans NCTC10449 strain and Streptococcus mutans Ingbritt strain were precultured using TSB medium (Difco) supplemented with 5% yeast extract (Difco) at 37° C. for 24 hours under aerobic conditions. The Porphyromonas gingivalis Hudoi001 strain and Aggregatibacter actinomycetemcomitans Hudoe001 strain were precultured using BHI medium (Difco) supplemented with hemin (5 mg/L) and vitamin K3 (1 mg/L) at 37° C. for 96 hours under anaerobic conditions with Anaero Pack System (Mitsubishi Gas Chemical Company, Inc.).
# (§2) After the culture, the cells of the Candida, cariogenic bacteria and periodontal disease bacteria were collected by centrifugation at 1000×g, and washed twice with 1 mM phosphate buffer (pH 6.8). The cells were then suspended such that the final concentration was 1×10^8 cfu/ml or 1×10^7 cells/m. For suspension of the Streptococcus strains, ultrasonic treatment was also carried out.
# (§3) Evaluation of the antimicrobial activity was carried out by the method by Edgerton and others (1998) with some modifications. With 20 mL of 1 mM phosphate buffer containing 0 to 25 μM Kog1 or Kog2 synthesized in Example 1, 20 μl of the suspension of the Candida albicans GDH18 strain cultured and prepared by the method described in the above Preparation Example was mixed, and the resulting mixture was incubated at 37° C. for 90 minutes with shaking. As a control, 20 ml of 1 mM phosphate buffer alone was used. The reaction was stopped by addition of 360 ml of YNB medium (Difco), and the number of colonies formed (colony forming units; CFUs) was counted together with the number of colonies in the control, to determine the percentage of living bacterial cells. That is, the equation of: (CFUs of suspension containing Kog1 or Kog2/CFU ml^−1 of control suspension)×100 was used to calculate the percentage.
# [2] = Measurement of the isoelectric point of the synthesized peptides; type: physicochemical; conditions: synthesized peptide
# Excerpt: Among antimicrobial peptides, hBD2 (human P-defensin-2 (see Eur J., 2002, Oral Sci. (109), 121-124)) is well known as a basic antimicrobial peptide, and has an isoelectric point of about 10. However, the isoelectric points of Kog1 and Kog2 of the embodiment 2 were higher than the isoelectric point of hBD2, and more similar to the isoelectric points of antimicrobial peptides derived from mammals. Thus, Kog1 and Kog2 were confirmed to have less cytotoxicity.
# [3] = system: Streptococcus mutans NCTC10449 strain; test: Antimicrobial activity against Streptococcus mutans NCTC10449; type: cell-based; conditions: 0 to 100 μM, FIG. 4
# [4] = system: Streptococcus mutans Ingbritt strain; test: Antimicrobial activity against Streptococcus mutans Ingbritt; type: cell-based; conditions: 0 to 100 μM, FIG. 5
# [5] = system: Streptococcus sobrinus B-13 strain; test: Antimicrobial activity against Streptococcus sobrinus B-13; type: cell-based; conditions: tested 0 to 100 μM
# Protocol: [The procedure below names another organism; the source lists this organism under the same test.] as §1, §2
# as §3, with “percentage. […]” for “percentage.”
# [6] = system: Porphyromonas gingivalis Hudoi001 strain; test: Antimicrobial activity against Porphyromonas gingivalis Hudoi001; type: cell-based; conditions: not shown in the figures
# Protocol: as §1, §2
# That is, it is assumed that, in Examples described in Patent Literature 1, the Lactobacillus rhamnosus KO3 strain expressed Kog1 and Kog2, and the expressed Kog1 and Kog2 exerted antimicrobial activity against the Porphyromonas gingivalis Hudoi001 strain. […]
# [7] = system: Porphyromonas gingivalis LPS (P.g-LPS) on RAW264.7 macrophage-like cells, ccl2; test: LPS inactivation: ccl2 secretion of RAW264.7 cells (ELISA); type: cell-based, mouse; conditions: 100 ng/ml P.g-LPS preincubated 2 hours with 5, 10, 20 μM Kog1; as amount added increased
# Protocol: (§4) As a medium, RPMI 1640 medium supplemented with 10% FBS (Fetal Bovine Serum) (Biological industries, Haemek, Israel), 1% antibiotic and 1% L-glutamine was used. In each well of a 24-well plate, 400 μl of the medium was placed, and 100,000 cells/well of mouse-derived RAW264.7 macrophage-like cells were inoculated thereto.
# (§5) The bacteriocin Kog1 or Kog2, which was the same as in Example 1, was incubated in an Eppendorf tube under each of the following 4 conditions together with Porphyromonas gingivalis LPS (manufactured by InvivoGen) (hereinafter referred to as P.g-LPS) and the same medium as described above, at 37° C. under a gas phase of 5% CO2 for 2 hours: (1) 100 ng/ml P.g-LPS positive control; (2) 100 ng/ml P.g-LPS+5 μM Kog1 or Kog2; (3) 100 ng/ml P.g-LPS+10 μM Kog1 or Kog2; (4) 100 ng/ml P.g-LPS+20 μM Kog1 or Kog2.
# (§6) The above-described medium placed in each well of the 24-well plate was removed using a pipetteman, and the medium in the Eppendorf tube for each of the 4 conditions described above was placed in the plate, followed by culturing the cells in the well plate at 37° C. under a gas phase of 5% CO2 for 12 hours. Thereafter, the culture supernatant was collected, and the amount of a chemokine ccl2 or the amount of a cytokine TNF-α secreted into the medium was quantified by the ELISA method by measuring the absorbance at 450 nm using a microplate reader. Since both ccl2 and TNF-α are involved in formation of inflammation, analysis of the relationship between the endotoxin LPS and the bacteriocins Kog1 and Kog2 is possible.
# [8] = system: Aggregatibacter actinomycetemcomitans Hudoe001 strain; test: Antimicrobial activity against Aggregatibacter actinomycetemcomitans Hudoe001; type: cell-based; conditions: tested 0 to 50 μM
# [9] = system: Porphyromonas gingivalis LPS (P.g-LPS) on RAW264.7 macrophage-like cells, TNF-α; test: LPS inactivation: TNF-α secretion of RAW264.7 cells (ELISA); type: cell-based; conditions: 100 ng/ml P.g-LPS preincubated 2 hours with 5, 10, 20 μM Kog1; as amount added increased
# Protocol: as §4, §5, §6
# [10] = system: Candida albicans MYA274 strain; test: Boiling experiment: antimicrobial activity (ATP) against Candida albicans MYA274; type: cell-based; conditions: concluded from supernatant boiled at 100° C. for 20 minutes; peptides not directly used
# Protocol: In Example 9, antimicrobial activity against the Candida albicans MYA274 strain was investigated. The Candida albicans MYA274 strain was precultured in Sabouraud dextrose broth (Difco) at 37° C. for 24 hours, and then washed twice with MQ water, followed by being prepared such that OD600 is 0.3 (1.0×10^7 cells/ml).
# In Example 9, the bacteriocin Kog1 or Kog2, or the Lactobacillus rhamnosus KO1 strain or KO3 strain, was not directly used. Instead, a lactic acid bacterium medium containing the Lactobacillus rhamnosus KO3 strain, 8020 yogurt (liquid type), was used in the experiment More specifically, the 8020 yogurt (liquid type) was prepared by adding the Lactobacillus rhamnosus KO3 strain at a concentration of 1% and YF-L811 starter at a concentration of 1% to the 15% skim milk+3% glucose medium, and then performing culture at 35° C. for 2 days.
# Such 8020 yogurt (liquid type) was centrifuged to obtain a supernatant from which the lactic acid bacterium was removed (hereinafter referred to as Supernatant B). In the experiment, Supernatant B and a sample prepared by boiling Supernatant B at 100° C. for 20 minutes (hereinafter referred to as Supernatant Boil) were used. […]
# In order to study changes in the antimicrobial activity by boiling, the following 3 kinds of samples were placed in a 24-well plate, and the value of ATP (pmol/L) after 24 hours of incubation at 37° C. was measured. […]
# [11] = well known basic antimicrobial peptide, literature; cited from earlier work
compound,measurement,setting,value
C[C@@H]1[C@H](O)[C@@H](C)/C=C/C=C/C=C/C=C/C=C/C=C/C=C/[C@H](O[C@@H]2O[C@H](C)[C@@H](O)[C@H](N)[C@@H]2O)C[C@@H]2O[C@](O)(C[C@@H](O)C[C@@H](O)[C@H](O)CC[C@@H](O)C[C@@H](O)CC(=O)O[C@H]1C)C[C@H](O)[C@H]2C(=O)O [amphotericin B],peptide concentration at which 100% of the strain was killed,[1],5 µM
JH8194: antimicrobial peptide of JP 3472821 B (amino acid sequence shown in SEQ ID NO: 7) (KRLFRRWQWRMKKY; Antimicrobial peptide),peptide concentration at which 100% of the strain was killed,[1],2.5 µM
"Kog1: peptide having the amino acid sequence shown in SEQ ID NO: 1, bacteriocin of Lactobacillus rhamnosus, synthesized by the tea-bag method (MAKARPSRPRPLTLRSLTAPAHAHKKWASRWILSMRLARVFGIEKPHG; listed as Lactobacillus rhamnosus)",isoelectric point (pl),[2],12.90
same,"antimicrobial activity compared to the other antimicrobial peptides (hBD2, lysozyme)",[3],capable of killing a larger amount of Streptococcus mutans even at relatively low peptide concentration
same,"antimicrobial activity compared to the other antimicrobial peptides (hBD2, lysozyme)",[4],capable of killing a larger amount of Streptococcus mutans even at relatively low peptide concentration
same,peptide concentration at which 100% of the strain was killed,[5],1.56 µM
same,antimicrobial activity,[6],capable of exerting antimicrobial activity
same,amount of the chemokine ccl2 secreted,[7],decreased
same,peptide concentration at which 100% of the strain was killed,[8],3.13 µM
same,peptide concentration at which 100% of the strain was killed,[1],0.39 µM
same,amount of the cytokine TNF-α secreted,[9],decreased
same,heat resistance (antimicrobial activity after heating),[10],still maintain antimicrobial activity after heating
"hBD2: human β-defensin-2, well known basic antimicrobial peptide (GIGDPVTCLKSGAICHPVFCPRRYKQIGTCGLPGTKCCKKP; ends and bridges not checked; cysteine pairing not given here; UniProt O15263 24-64, looked up) [reference compound]",peptide concentration at which 100% of the strain was killed,[5],3.125 µM
same,isoelectric point,[11],about 10
histatin 5: antimicrobial peptide derived from human saliva (amino acid sequence shown in SEQ ID NO: 6) (DSHEKRHHGYKRKFHEKHHSHRGY; Antimicrobial peptide),peptide concentration at which 100% of the strain was killed,[1],100 µM
lactoferricin B: antimicrobial peptide derived from milk (amino acid sequence shown in SEQ ID NO: 5) (FKCRRWQWRMKKLGAPSITCVRRAF; Antimicrobial peptide),peptide concentration at which 100% of the strain was killed,[1],5 µM
